Columns and labels:
Format in all cases: cell-based
Conditions in all cases: compounds at 50 nM and 500 nM, 24 hours
IKZF1 = target: T1, IKZF1 (Homo sapiens, UniProt Q13422+Q96SW2); experiment: Western-blot assay, substrate protein degradation in hPBMCs: IKZF1
T1 construct: effects of the compounds of the present disclosure on the expression of target proteins in cells; endogenous in cells; host or cells: human PBMCs (hPBMCs)

CK1α = target: T2, CK1α (Homo sapiens, UniProt P48729+Q96SW2); experiment: Western-blot assay, substrate protein degradation in hPBMCs: CK1α
T2 construct: effects of the compounds of the present disclosure on the expression of target proteins in cells; endogenous in cells; host or cells: human PBMCs (hPBMCs)

GSPT1 = target: T3, GSPT1 (Homo sapiens, UniProt P15170+Q96SW2); experiment: Western-blot assay, substrate protein degradation in hPBMCs: GSPT1
T3 construct: effects of the compounds of the present disclosure on the expression of target proteins in cells; endogenous in cells; host or cells: human PBMCs (hPBMCs)
T3 sequence (P15170 whole entry): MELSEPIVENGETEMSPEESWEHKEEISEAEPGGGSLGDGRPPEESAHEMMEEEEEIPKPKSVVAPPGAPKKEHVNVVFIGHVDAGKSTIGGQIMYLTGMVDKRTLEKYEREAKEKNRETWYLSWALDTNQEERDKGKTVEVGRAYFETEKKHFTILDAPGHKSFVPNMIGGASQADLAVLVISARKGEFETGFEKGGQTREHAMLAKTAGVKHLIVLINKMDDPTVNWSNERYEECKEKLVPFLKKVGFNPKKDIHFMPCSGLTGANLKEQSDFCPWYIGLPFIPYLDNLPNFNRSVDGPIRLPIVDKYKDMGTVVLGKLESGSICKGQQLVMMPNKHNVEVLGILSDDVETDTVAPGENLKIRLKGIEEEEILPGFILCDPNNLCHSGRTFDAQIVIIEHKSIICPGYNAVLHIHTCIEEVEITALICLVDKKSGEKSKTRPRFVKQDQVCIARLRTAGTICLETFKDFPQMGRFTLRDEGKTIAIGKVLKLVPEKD
T3 sequence (Q96SW2 whole entry): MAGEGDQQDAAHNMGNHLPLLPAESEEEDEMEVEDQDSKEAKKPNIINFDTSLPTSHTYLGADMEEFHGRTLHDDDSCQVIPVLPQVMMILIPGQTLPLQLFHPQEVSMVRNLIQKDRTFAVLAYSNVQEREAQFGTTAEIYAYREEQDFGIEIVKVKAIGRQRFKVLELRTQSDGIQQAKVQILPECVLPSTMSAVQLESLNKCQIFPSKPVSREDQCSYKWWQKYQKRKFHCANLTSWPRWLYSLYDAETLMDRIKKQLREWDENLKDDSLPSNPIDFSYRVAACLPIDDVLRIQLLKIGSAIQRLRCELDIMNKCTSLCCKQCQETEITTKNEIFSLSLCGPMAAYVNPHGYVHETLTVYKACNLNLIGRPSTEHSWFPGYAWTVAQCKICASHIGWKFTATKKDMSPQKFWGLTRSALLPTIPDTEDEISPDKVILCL
T3 sequence (Q16531 whole entry partner): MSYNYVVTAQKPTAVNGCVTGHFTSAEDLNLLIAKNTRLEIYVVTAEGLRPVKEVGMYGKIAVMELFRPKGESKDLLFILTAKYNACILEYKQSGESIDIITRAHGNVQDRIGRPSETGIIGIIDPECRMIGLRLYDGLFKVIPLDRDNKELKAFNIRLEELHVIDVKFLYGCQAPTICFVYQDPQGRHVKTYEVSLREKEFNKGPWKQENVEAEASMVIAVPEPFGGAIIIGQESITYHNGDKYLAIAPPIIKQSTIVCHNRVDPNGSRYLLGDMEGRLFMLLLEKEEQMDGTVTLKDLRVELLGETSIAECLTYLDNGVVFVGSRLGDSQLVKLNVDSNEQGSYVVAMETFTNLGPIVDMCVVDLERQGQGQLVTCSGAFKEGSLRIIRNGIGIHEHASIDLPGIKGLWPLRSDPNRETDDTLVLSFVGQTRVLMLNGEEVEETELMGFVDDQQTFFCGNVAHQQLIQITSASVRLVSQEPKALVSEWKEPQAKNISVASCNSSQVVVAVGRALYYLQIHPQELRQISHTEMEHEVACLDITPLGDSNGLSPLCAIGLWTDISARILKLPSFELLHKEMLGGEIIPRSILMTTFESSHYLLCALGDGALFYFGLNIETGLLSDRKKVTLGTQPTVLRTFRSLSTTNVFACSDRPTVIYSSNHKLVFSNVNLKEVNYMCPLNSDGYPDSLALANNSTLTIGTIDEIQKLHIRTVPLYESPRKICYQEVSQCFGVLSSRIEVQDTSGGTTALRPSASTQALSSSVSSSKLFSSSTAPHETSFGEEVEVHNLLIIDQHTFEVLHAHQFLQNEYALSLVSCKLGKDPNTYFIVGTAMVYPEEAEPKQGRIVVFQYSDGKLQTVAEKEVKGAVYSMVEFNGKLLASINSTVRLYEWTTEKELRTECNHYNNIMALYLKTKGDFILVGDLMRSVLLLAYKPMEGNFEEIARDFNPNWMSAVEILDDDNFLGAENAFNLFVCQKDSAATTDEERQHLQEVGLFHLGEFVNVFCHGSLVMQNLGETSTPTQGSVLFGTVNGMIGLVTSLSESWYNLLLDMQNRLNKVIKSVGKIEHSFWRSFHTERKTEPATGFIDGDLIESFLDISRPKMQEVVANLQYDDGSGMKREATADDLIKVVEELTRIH

WEE1 = target: T4, WEE1 (Homo sapiens, UniProt P30291+Q96SW2); experiment: Western-blot assay, substrate protein degradation in hPBMCs: WEE1
T4 construct: effects of the compounds of the present disclosure on the expression of target proteins in cells; endogenous in cells; host or cells: human PBMCs (hPBMCs)
T4 sequence (P30291 whole entry): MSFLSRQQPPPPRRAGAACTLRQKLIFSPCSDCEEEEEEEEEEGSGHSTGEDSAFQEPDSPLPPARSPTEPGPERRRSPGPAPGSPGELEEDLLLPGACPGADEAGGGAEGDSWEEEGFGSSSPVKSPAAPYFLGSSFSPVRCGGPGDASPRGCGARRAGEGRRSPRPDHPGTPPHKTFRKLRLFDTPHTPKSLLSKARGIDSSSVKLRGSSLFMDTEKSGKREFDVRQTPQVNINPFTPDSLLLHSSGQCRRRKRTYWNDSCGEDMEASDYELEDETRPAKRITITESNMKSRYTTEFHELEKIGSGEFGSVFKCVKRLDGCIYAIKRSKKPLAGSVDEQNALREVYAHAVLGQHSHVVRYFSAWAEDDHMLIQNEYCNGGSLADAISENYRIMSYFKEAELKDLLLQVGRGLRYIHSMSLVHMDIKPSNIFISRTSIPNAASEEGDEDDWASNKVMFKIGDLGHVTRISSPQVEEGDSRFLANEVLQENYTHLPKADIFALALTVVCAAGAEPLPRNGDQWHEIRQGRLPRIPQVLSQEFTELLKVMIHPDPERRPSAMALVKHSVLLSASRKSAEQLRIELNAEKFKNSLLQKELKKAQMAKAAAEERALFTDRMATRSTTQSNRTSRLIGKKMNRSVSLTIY
T4 sequence (Q96SW2 whole entry): as the sequence (Q96SW2 whole entry) above
T4 sequence (Q16531 whole entry partner): as the sequence (Q16531 whole entry partner) above

IKZF3 = target: T5, IKZF3 (Homo sapiens, UniProt Q96SW2+Q9UKT9); experiment: Western-blot assay, substrate protein degradation in hPBMCs: IKZF3
T5 construct: effects of the compounds of the present disclosure on the expression of target proteins in cells; endogenous in cells; host or cells: human PBMCs (hPBMCs)
T5 sequence (Q9UKT9 whole entry): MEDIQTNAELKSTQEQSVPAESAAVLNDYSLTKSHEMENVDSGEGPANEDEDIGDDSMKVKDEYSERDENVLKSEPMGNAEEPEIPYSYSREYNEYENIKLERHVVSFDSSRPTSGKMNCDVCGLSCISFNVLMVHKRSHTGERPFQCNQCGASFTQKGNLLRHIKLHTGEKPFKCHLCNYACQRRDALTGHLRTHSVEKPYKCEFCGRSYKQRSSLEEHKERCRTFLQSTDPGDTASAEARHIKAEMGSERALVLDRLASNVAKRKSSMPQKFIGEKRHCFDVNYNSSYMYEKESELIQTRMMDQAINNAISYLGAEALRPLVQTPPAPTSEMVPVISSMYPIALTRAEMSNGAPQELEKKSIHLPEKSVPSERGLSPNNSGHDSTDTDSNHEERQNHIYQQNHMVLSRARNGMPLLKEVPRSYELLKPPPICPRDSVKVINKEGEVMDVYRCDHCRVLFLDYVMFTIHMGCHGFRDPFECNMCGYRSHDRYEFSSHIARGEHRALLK
T5 sequence (Q96SW2 whole entry): as the sequence (Q96SW2 whole entry) above
T5 sequence (Q16531 whole entry partner): as the sequence (Q16531 whole entry partner) above

IKZF2 = target: T6, IKZF2 (Homo sapiens, UniProt Q96SW2+Q9UKS7); experiment: Western-blot assay, substrate protein degradation in hPBMCs: IKZF2
T6 construct: effects of the compounds of the present disclosure on the expression of target proteins in cells; endogenous in cells; host or cells: human PBMCs (hPBMCs)
T6 sequence (Q9UKS7 whole entry): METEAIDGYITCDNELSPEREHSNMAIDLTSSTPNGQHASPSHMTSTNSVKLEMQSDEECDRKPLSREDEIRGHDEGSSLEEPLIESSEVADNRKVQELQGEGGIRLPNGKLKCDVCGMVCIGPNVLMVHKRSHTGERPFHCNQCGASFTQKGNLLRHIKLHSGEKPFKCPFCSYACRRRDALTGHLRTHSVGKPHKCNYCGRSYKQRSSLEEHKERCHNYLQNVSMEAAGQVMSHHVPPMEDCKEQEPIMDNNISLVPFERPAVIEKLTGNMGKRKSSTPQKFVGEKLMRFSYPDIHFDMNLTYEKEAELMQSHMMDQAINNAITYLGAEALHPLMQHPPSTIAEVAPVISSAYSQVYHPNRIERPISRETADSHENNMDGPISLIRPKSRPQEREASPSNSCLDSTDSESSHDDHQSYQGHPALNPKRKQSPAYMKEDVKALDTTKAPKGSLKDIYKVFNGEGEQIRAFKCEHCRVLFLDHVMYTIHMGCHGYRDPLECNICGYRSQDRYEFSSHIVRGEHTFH
T6 sequence (Q96SW2 whole entry): as the sequence (Q96SW2 whole entry) above
T6 sequence (Q16531 whole entry partner): as the sequence (Q16531 whole entry partner) above

T1 sequence (Q13422 whole entry): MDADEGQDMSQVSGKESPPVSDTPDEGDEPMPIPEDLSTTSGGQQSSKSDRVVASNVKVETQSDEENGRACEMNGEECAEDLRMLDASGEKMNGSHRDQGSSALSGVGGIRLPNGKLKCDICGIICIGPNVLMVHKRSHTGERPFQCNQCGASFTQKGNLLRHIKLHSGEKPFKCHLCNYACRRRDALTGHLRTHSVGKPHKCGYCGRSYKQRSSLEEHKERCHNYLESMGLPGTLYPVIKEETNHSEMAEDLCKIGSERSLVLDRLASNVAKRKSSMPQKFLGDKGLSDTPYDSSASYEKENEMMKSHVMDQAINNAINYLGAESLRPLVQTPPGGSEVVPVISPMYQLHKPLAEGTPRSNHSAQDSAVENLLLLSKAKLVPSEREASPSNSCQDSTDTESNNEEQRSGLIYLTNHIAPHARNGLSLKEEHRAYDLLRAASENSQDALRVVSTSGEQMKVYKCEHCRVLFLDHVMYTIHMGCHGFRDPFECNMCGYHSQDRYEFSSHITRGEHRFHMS
T1 sequence (Q96SW2 whole entry): as the sequence (Q96SW2 whole entry) above
T1 sequence (Q16531 whole entry partner): as the sequence (Q16531 whole entry partner) above

O=C1CCN(N2C(=O)c3ccc(CN4CC=C(c5cccc(F)c5Cl)CC4)cc3C2=O)C(=O)N1 [GT-06896, 5-((4-(2-chloro-3-fluorophenyl)-3,6-dihydropyridin-1(2H)-yl)methyl)-2-(2,4-dioxotetrahydropyrimidin-1(2H)-yl)isoindoline-1,3-dione]
IKZF1 substrate protein remaining % (IKZF1): A ("A" is defined as 0% ≤ substrate protein remaining % ≤ 80%) | CK1α substrate protein remaining % (CK1α): B ("B" is defined as 80%< substrate protein remaining %≤ 100%) | GSPT1 substrate protein remaining % (GSPT1): B ("B" is defined as 80%< substrate protein remaining %≤ 100%) | WEE1 substrate protein remaining % (WEE1): B ("B" is defined as 80%< substrate protein remaining %≤ 100%) | IKZF3 substrate protein remaining % (IKZF3): B ("B" is defined as 80%< substrate protein remaining %≤ 100%) | IKZF2 substrate protein remaining % (IKZF2): B ("B" is defined as 80%< substrate protein remaining %≤ 100%)

O=C1CCN(N2C(=O)c3ccc(CN4CCN(c5ccc(F)cn5)CC4)cc3C2=O)C(=O)N1 [GT-06965, 2-(2,4-dioxotetrahydropyrimidin-1(2H)-yl)-5-((4-(5-fluoropyridin-2-yl)piperazin-1-yl)methyl)isoindoline-1,3-dione]
IKZF1 substrate protein remaining % (IKZF1): B ("B" is defined as 80%< substrate protein remaining %≤ 100%) | CK1α substrate protein remaining % (CK1α): B ("B" is defined as 80%< substrate protein remaining %≤ 100%) | GSPT1 substrate protein remaining % (GSPT1): B ("B" is defined as 80%< substrate protein remaining %≤ 100%) | WEE1 substrate protein remaining % (WEE1): B ("B" is defined as 80%< substrate protein remaining %≤ 100%) | IKZF3 substrate protein remaining % (IKZF3): B ("B" is defined as 80%< substrate protein remaining %≤ 100%) | IKZF2 substrate protein remaining % (IKZF2): A ("A" is defined as 0% ≤ substrate protein remaining % ≤ 80%)

O=C1CCN(N2C(=O)c3ccc(CN4CCN(c5ccc(C(F)(F)F)cn5)CC4)cc3C2=O)C(=O)N1 [GT-06968, 2-(2,4-dioxotetrahydropyrimidin-1(2H)-yl)-5-((4-(5-(trifluoromethyl)pyridin-2-yl)piperazin-1-yl)methyl)isoindoline-1,3-dione]
IKZF1 substrate protein remaining % (IKZF1): B ("B" is defined as 80%< substrate protein remaining %≤ 100%) | CK1α substrate protein remaining % (CK1α): B ("B" is defined as 80%< substrate protein remaining %≤ 100%) | GSPT1 substrate protein remaining % (GSPT1): B ("B" is defined as 80%< substrate protein remaining %≤ 100%) | WEE1 substrate protein remaining % (WEE1): A ("A" is defined as 0% ≤ substrate protein remaining % ≤ 80%) | IKZF3 substrate protein remaining % (IKZF3): B ("B" is defined as 80%< substrate protein remaining %≤ 100%) | IKZF2 substrate protein remaining % (IKZF2): A ("A" is defined as 0% ≤ substrate protein remaining % ≤ 80%)

O=C1CCN(N2C(=O)c3ccc(CN4CCN(c5ncc(Cl)cc5Cl)CC4)cc3C2=O)C(=O)N1 [GT-06969, 5-((4-(3,5-dichloropyridin-2-yl)piperazin-1-yl)methyl)-2-(2,4-dioxotetrahydropyrimidin-1(2H)-yl)isoindoline-1,3-dione]
IKZF1 substrate protein remaining % (IKZF1): B ("B" is defined as 80%< substrate protein remaining %≤ 100%) | CK1α substrate protein remaining % (CK1α): B ("B" is defined as 80%< substrate protein remaining %≤ 100%) | GSPT1 substrate protein remaining % (GSPT1): B ("B" is defined as 80%< substrate protein remaining %≤ 100%) | WEE1 substrate protein remaining % (WEE1): A ("A" is defined as 0% ≤ substrate protein remaining % ≤ 80%) | IKZF3 substrate protein remaining % (IKZF3): B ("B" is defined as 80%< substrate protein remaining %≤ 100%) | IKZF2 substrate protein remaining % (IKZF2): A ("A" is defined as 0% ≤ substrate protein remaining % ≤ 80%)

O=C1CCN(N2C(=O)c3ccc(CN4CCN(c5nccc(I)c5F)CC4)cc3C2=O)C(=O)N1 [GT-06970, 2-(2,4-dioxotetrahydropyrimidin-1(2H)-yl)-5-((4-(3-fluoro-4-iodopyridin-2-yl)piperazin-1-yl)methyl)isoindoline-1,3-dione]
IKZF1 substrate protein remaining % (IKZF1): B ("B" is defined as 80%< substrate protein remaining %≤ 100%) | CK1α substrate protein remaining % (CK1α): B ("B" is defined as 80%< substrate protein remaining %≤ 100%) | GSPT1 substrate protein remaining % (GSPT1): B ("B" is defined as 80%< substrate protein remaining %≤ 100%) | WEE1 substrate protein remaining % (WEE1): A ("A" is defined as 0% ≤ substrate protein remaining % ≤ 80%) | IKZF3 substrate protein remaining % (IKZF3): B ("B" is defined as 80%< substrate protein remaining %≤ 100%) | IKZF2 substrate protein remaining % (IKZF2): A ("A" is defined as 0% ≤ substrate protein remaining % ≤ 80%)

O=C1CCN(N2C(=O)c3ccc(CN4CCN(c5cccnc5)CC4)cc3C2=O)C(=O)N1 [GT-06971, 2-(2,4-dioxotetrahydropyrimidin-1(2H)-yl)-5-((4-(pyridin-3-yl)piperazin-1-yl)methyl)isoindoline-1,3-dione]
IKZF1 substrate protein remaining % (IKZF1): B ("B" is defined as 80%< substrate protein remaining %≤ 100%) | CK1α substrate protein remaining % (CK1α): B ("B" is defined as 80%< substrate protein remaining %≤ 100%) | GSPT1 substrate protein remaining % (GSPT1): B ("B" is defined as 80%< substrate protein remaining %≤ 100%) | WEE1 substrate protein remaining % (WEE1): A ("A" is defined as 0% ≤ substrate protein remaining % ≤ 80%) | IKZF3 substrate protein remaining % (IKZF3): B ("B" is defined as 80%< substrate protein remaining %≤ 100%) | IKZF2 substrate protein remaining % (IKZF2): A ("A" is defined as 0% ≤ substrate protein remaining % ≤ 80%)

O=C1CCN(N2C(=O)c3ccc(CN4CCN(c5cncc(Cl)c5Cl)CC4)cc3C2=O)C(=O)N1 [GT-06972, 5-((4-(4,5-dichloropyridin-3-yl)piperazin-1-yl)methyl)-2-(2,4-dioxotetrahydropyrimidin-1(2H)-yl)isoindoline-1,3-dione]
IKZF1 substrate protein remaining % (IKZF1): B ("B" is defined as 80%< substrate protein remaining %≤ 100%) | CK1α substrate protein remaining % (CK1α): B ("B" is defined as 80%< substrate protein remaining %≤ 100%) | GSPT1 substrate protein remaining % (GSPT1): B ("B" is defined as 80%< substrate protein remaining %≤ 100%) | WEE1 substrate protein remaining % (WEE1): A ("A" is defined as 0% ≤ substrate protein remaining % ≤ 80%) | IKZF3 substrate protein remaining % (IKZF3): B ("B" is defined as 80%< substrate protein remaining %≤ 100%) | IKZF2 substrate protein remaining % (IKZF2): A ("A" is defined as 0% ≤ substrate protein remaining % ≤ 80%)

O=C1CCN(N2C(=O)c3ccc(CN4CCN(c5c(Cl)ccnc5Cl)CC4)cc3C2=O)C(=O)N1 [GT-06973, 5-((4-(2,4-dichloropyridin-3-yl)piperazin-1-yl)methyl)-2-(2,4-dioxotetrahydropyrimidin-1(2H)-yl)isoindoline-1,3-dione]
IKZF1 substrate protein remaining % (IKZF1): A ("A" is defined as 0% ≤ substrate protein remaining % ≤ 80%) | CK1α substrate protein remaining % (CK1α): B ("B" is defined as 80%< substrate protein remaining %≤ 100%) | GSPT1 substrate protein remaining % (GSPT1): B ("B" is defined as 80%< substrate protein remaining %≤ 100%) | WEE1 substrate protein remaining % (WEE1): A ("A" is defined as 0% ≤ substrate protein remaining % ≤ 80%) | IKZF3 substrate protein remaining % (IKZF3): A ("A" is defined as 0% ≤ substrate protein remaining % ≤ 80%) | IKZF2 substrate protein remaining % (IKZF2): B ("B" is defined as 80%< substrate protein remaining %≤ 100%)

O=C1CCN(N2Cc3cc(CN4CCN(c5c(Cl)ccnc5Cl)CC4)ccc3C2=O)C(=O)N1 [GT-06974, 1-(5-((4-(2,4-dichloropyridin-3-yl)piperazin-1-yl)methyl)-1-oxoisoindolin-2-yl)dihydropyrimidine-2,4(1H,3H)-dione]
IKZF1 substrate protein remaining % (IKZF1): A ("A" is defined as 0% ≤ substrate protein remaining % ≤ 80%) | CK1α substrate protein remaining % (CK1α): B ("B" is defined as 80%< substrate protein remaining %≤ 100%) | GSPT1 substrate protein remaining % (GSPT1): B ("B" is defined as 80%< substrate protein remaining %≤ 100%) | WEE1 substrate protein remaining % (WEE1): A ("A" is defined as 0% ≤ substrate protein remaining % ≤ 80%) | IKZF3 substrate protein remaining % (IKZF3): A ("A" is defined as 0% ≤ substrate protein remaining % ≤ 80%) | IKZF2 substrate protein remaining % (IKZF2): B ("B" is defined as 80%< substrate protein remaining %≤ 100%)

O=C1CCN(N2C(=O)c3ccc(CN4CCN(c5ccc(Cl)nc5)CC4)cc3C2=O)C(=O)N1 [GT-07027, 5-((4-(6-chloropyridin-3-yl)piperazin-1-yl)methyl)-2-(2,4-dioxotetrahydropyrimidin-1(2H)-yl)isoindoline-1,3-dione]
IKZF1 substrate protein remaining % (IKZF1): B ("B" is defined as 80%< substrate protein remaining %≤ 100%) | CK1α substrate protein remaining % (CK1α): B ("B" is defined as 80%< substrate protein remaining %≤ 100%) | GSPT1 substrate protein remaining % (GSPT1): A ("A" is defined as 0% ≤ substrate protein remaining % ≤ 80%) | WEE1 substrate protein remaining % (WEE1): A ("A" is defined as 0% ≤ substrate protein remaining % ≤ 80%) | IKZF3 substrate protein remaining % (IKZF3): B ("B" is defined as 80%< substrate protein remaining %≤ 100%) | IKZF2 substrate protein remaining % (IKZF2): B ("B" is defined as 80%< substrate protein remaining %≤ 100%)

O=C1CCN(N2Cc3cc(CN4CCN(c5ncnc(Cl)c5Cl)CC4)ccc3C2=O)C(=O)N1 [GT-07028, 1-(5-((4-(5,6-dichloropyrimidin-4-yl)piperazin-1-yl)methyl)-1-oxoisoindolin-2-yl)dihydropyrimidine-2,4(1H,3H)-dione]
IKZF1 substrate protein remaining % (IKZF1): B ("B" is defined as 80%< substrate protein remaining %≤ 100%) | CK1α substrate protein remaining % (CK1α): B ("B" is defined as 80%< substrate protein remaining %≤ 100%) | GSPT1 substrate protein remaining % (GSPT1): A ("A" is defined as 0% ≤ substrate protein remaining % ≤ 80%) | WEE1 substrate protein remaining % (WEE1): A ("A" is defined as 0% ≤ substrate protein remaining % ≤ 80%) | IKZF3 substrate protein remaining % (IKZF3): B ("B" is defined as 80%< substrate protein remaining %≤ 100%) | IKZF2 substrate protein remaining % (IKZF2): B ("B" is defined as 80%< substrate protein remaining %≤ 100%)

Source: patent EP4722207A1, “OXOISOINDOLINYL-SUBSTITUTED TETRAHYDROPYRIMIDINEDIONE DERIVATIVE AND USE THEREOF” (Gluetacs Therapeutics (Shanghai) Co., Ltd., priority 2023, dated 2024)
